Settings: Fluid (supercritical or subcritical phases), Coaxial cylinder method

CCC [propane]
Settings | thermal conductivity [W/m/K]
373.2 K, 4574 kPa | 0.0745
373.2 K, 4590 kPa | 0.0724
373.2 K, 4605 kPa | 0.07168
373.2 K, 4610 kPa | 0.07119
373.2 K, 4640 kPa | 0.06975
373.2 K, 4660 kPa | 0.06887
373.2 K, 4680 kPa | 0.06797
373.2 K, 4740 kPa | 0.06707
373.2 K, 4900 kPa | 0.06613
373.2 K, 5100 kPa | 0.06615
373.2 K, 5540 kPa | 0.06698
373.2 K, 6300 kPa | 0.06878
373.2 K, 6700 kPa | 0.06932
373.2 K, 7400 kPa | 0.07086
373.2 K, 7780 kPa | 0.07152
373.2 K, 8900 kPa | 0.0735
373.2 K, 10500 kPa | 0.0764
373.2 K, 11900 kPa | 0.07818
374.28 K, 2900 kPa | 0.03164
374.28 K, 3087 kPa | 0.03271
374.28 K, 3424 kPa | 0.03453
374.28 K, 3945 kPa | 0.03887
374.28 K, 3975 kPa | 0.03918
374.28 K, 4080 kPa | 0.0412
374.28 K, 4200 kPa | 0.04376
374.28 K, 4280 kPa | 0.04558
374.28 K, 4320 kPa | 0.04719
374.28 K, 4380 kPa | 0.04961
374.28 K, 4425 kPa | 0.05238
374.28 K, 4440 kPa | 0.05378
374.28 K, 4450 kPa | 0.05483
374.28 K, 4460 kPa | 0.05626
374.28 K, 4475 kPa | 0.05823
374.28 K, 4485 kPa | 0.0596
374.28 K, 4510 kPa | 0.06324
374.28 K, 4515 kPa | 0.06424
374.28 K, 4518 kPa | 0.06502
374.28 K, 4520 kPa | 0.06551
374.28 K, 4535 kPa | 0.06874
374.28 K, 4545 kPa | 0.07123
374.28 K, 4550 kPa | 0.07267
374.28 K, 4560 kPa | 0.07525
374.28 K, 4565 kPa | 0.07664
374.28 K, 4570 kPa | 0.07786
374.28 K, 4575 kPa | 0.07875
374.28 K, 4580 kPa | 0.07954
374.28 K, 4585 kPa | 0.08016
374.28 K, 4590 kPa | 0.08076
374.28 K, 4595 kPa | 0.08112
374.28 K, 4600 kPa | 0.08148
374.28 K, 4605 kPa | 0.0816
374.28 K, 4610 kPa | 0.08117
374.28 K, 4615 kPa | 0.08036
374.28 K, 4620 kPa | 0.07961
374.28 K, 4625 kPa | 0.07854
374.28 K, 4630 kPa | 0.07755
374.28 K, 4640 kPa | 0.07599
374.28 K, 4650 kPa | 0.07477
374.28 K, 4670 kPa | 0.07334
374.28 K, 4685 kPa | 0.0724
374.28 K, 4710 kPa | 0.07096
374.28 K, 4720 kPa | 0.07026
374.28 K, 4740 kPa | 0.06979
374.28 K, 4760 kPa | 0.06909
374.28 K, 4780 kPa | 0.06868
374.28 K, 4820 kPa | 0.06778
374.28 K, 4900 kPa | 0.06693
374.28 K, 5000 kPa | 0.06603
374.28 K, 5200 kPa | 0.06584
374.28 K, 5500 kPa | 0.06645
374.28 K, 5798 kPa | 0.06707
374.28 K, 6323 kPa | 0.06829
374.28 K, 6760 kPa | 0.06867
375.1 K, 3780 kPa | 0.03695
375.1 K, 3790 kPa | 0.03732
375.1 K, 3794 kPa | 0.03755
375.1 K, 4210 kPa | 0.04276
375.1 K, 4300 kPa | 0.04526
375.1 K, 4315 kPa | 0.04587
375.1 K, 4350 kPa | 0.04739
375.1 K, 4400 kPa | 0.04912
375.1 K, 4450 kPa | 0.05149
375.1 K, 4510 kPa | 0.05552
375.1 K, 4520 kPa | 0.05654
375.1 K, 4525 kPa | 0.0572
375.1 K, 4535 kPa | 0.05845
375.1 K, 4545 kPa | 0.05974
375.1 K, 4550 kPa | 0.06052
375.1 K, 4555 kPa | 0.06115
375.1 K, 4560 kPa | 0.06195
375.1 K, 4565 kPa | 0.06257
375.1 K, 4570 kPa | 0.06325
375.1 K, 4575 kPa | 0.06422
375.1 K, 4580 kPa | 0.06509
375.1 K, 4585 kPa | 0.06611
375.1 K, 4590 kPa | 0.06706
375.1 K, 4595 kPa | 0.06795
375.1 K, 4600 kPa | 0.06877
375.1 K, 4605 kPa | 0.06965
375.1 K, 4610 kPa | 0.07049
375.1 K, 4620 kPa | 0.07215
375.1 K, 4625 kPa | 0.07291
375.1 K, 4630 kPa | 0.07371
375.1 K, 4635 kPa | 0.07453
375.1 K, 4640 kPa | 0.07507
375.1 K, 4645 kPa | 0.07542
375.1 K, 4650 kPa | 0.07583
375.1 K, 4655 kPa | 0.07611
375.1 K, 4660 kPa | 0.07639
375.1 K, 4665 kPa | 0.07653
375.1 K, 4670 kPa | 0.07625
375.1 K, 4675 kPa | 0.07597
375.1 K, 4680 kPa | 0.07569
375.1 K, 4685 kPa | 0.07544
375.1 K, 4695 kPa | 0.07466
375.1 K, 4700 kPa | 0.07412
375.1 K, 4710 kPa | 0.07346
375.1 K, 4720 kPa | 0.07261
375.1 K, 4740 kPa | 0.07111
375.1 K, 4750 kPa | 0.07062
375.1 K, 4770 kPa | 0.06965
375.1 K, 4790 kPa | 0.06852
375.1 K, 4800 kPa | 0.06807
375.1 K, 4850 kPa | 0.06676
375.1 K, 4890 kPa | 0.06599
375.1 K, 4920 kPa | 0.06554
375.1 K, 4950 kPa | 0.06533
375.1 K, 5040 kPa | 0.06533
375.1 K, 5140 kPa | 0.0653
375.1 K, 5160 kPa | 0.06529
375.1 K, 5226 kPa | 0.06525
375.1 K, 5322 kPa | 0.06576
375.1 K, 5580 kPa | 0.06644
375.1 K, 5830 kPa | 0.06691
375.1 K, 6480 kPa | 0.06842
375.1 K, 6540 kPa | 0.06846
375.1 K, 7140 kPa | 0.06958
375.1 K, 8020 kPa | 0.07114
375.1 K, 8950 kPa | 0.07271
375.1 K, 9500 kPa | 0.07355
375.1 K, 9700 kPa | 0.0739
375.1 K, 10360 kPa | 0.075
375.9 K, 3110 kPa | 0.03373
375.9 K, 3134 kPa | 0.0338
375.9 K, 3250 kPa | 0.03412
375.9 K, 3300 kPa | 0.03433
375.9 K, 3550 kPa | 0.03563
375.9 K, 3600 kPa | 0.03595
375.9 K, 3800 kPa | 0.03747
375.9 K, 4000 kPa | 0.03934
375.9 K, 4050 kPa | 0.03986
375.9 K, 4125 kPa | 0.04091
375.9 K, 4250 kPa | 0.04345
375.9 K, 4350 kPa | 0.04589
375.9 K, 4400 kPa | 0.04729
375.9 K, 4450 kPa | 0.04877
375.9 K, 4510 kPa | 0.05175
375.9 K, 4540 kPa | 0.0535
375.9 K, 4560 kPa | 0.05503
375.9 K, 4570 kPa | 0.05607
375.9 K, 4580 kPa | 0.05714
375.9 K, 4590 kPa | 0.05826
375.9 K, 4600 kPa | 0.05949
375.9 K, 4620 kPa | 0.06128
375.9 K, 4630 kPa | 0.06278
375.9 K, 4640 kPa | 0.06448
375.9 K, 4650 kPa | 0.06572
375.9 K, 4660 kPa | 0.06701
375.9 K, 4670 kPa | 0.06835
375.9 K, 4680 kPa | 0.06967
375.9 K, 4690 kPa | 0.07058
375.9 K, 4700 kPa | 0.07156
375.9 K, 4720 kPa | 0.07283
375.9 K, 4740 kPa | 0.07257
375.9 K, 4760 kPa | 0.07206
375.9 K, 4780 kPa | 0.07106
375.9 K, 4800 kPa | 0.0705
375.9 K, 4820 kPa | 0.06995
375.9 K, 4840 kPa | 0.06936
375.9 K, 4880 kPa | 0.06835
375.9 K, 4950 kPa | 0.06708
375.9 K, 5050 kPa | 0.06621
375.9 K, 5100 kPa | 0.0662
375.9 K, 5200 kPa | 0.06603
375.9 K, 5250 kPa | 0.06588
375.9 K, 5500 kPa | 0.06634
375.9 K, 5550 kPa | 0.06631
375.9 K, 5700 kPa | 0.06671
375.9 K, 5820 kPa | 0.06682
375.9 K, 5900 kPa | 0.06696
375.9 K, 6000 kPa | 0.06714
375.9 K, 6200 kPa | 0.06746
375.9 K, 6800 kPa | 0.06884
375.9 K, 7200 kPa | 0.0696
375.9 K, 7800 kPa | 0.07056
375.9 K, 8500 kPa | 0.072
375.9 K, 9000 kPa | 0.07288
375.9 K, 9190 kPa | 0.07314
375.9 K, 9806 kPa | 0.07405
375.9 K, 10000 kPa | 0.07439
375.9 K, 11000 kPa | 0.07591
375.9 K, 11028 kPa | 0.07597
375.9 K, 11500 kPa | 0.0765
375.9 K, 12000 kPa | 0.07724
375.9 K, 13000 kPa | 0.07845
381 K, 3253 kPa | 0.03426
381 K, 3260 kPa | 0.03429
381 K, 3320 kPa | 0.03451
381 K, 3428 kPa | 0.03498
381 K, 3580 kPa | 0.03558
381 K, 3820 kPa | 0.03665
381 K, 3880 kPa | 0.03705
381 K, 4040 kPa | 0.03825
381 K, 4100 kPa | 0.0389
381 K, 4220 kPa | 0.04027
381 K, 4520 kPa | 0.04459
381 K, 4560 kPa | 0.04539
381 K, 4600 kPa | 0.04618
381 K, 4660 kPa | 0.04756
381 K, 4740 kPa | 0.04988
381 K, 4780 kPa | 0.05126
381 K, 4800 kPa | 0.05187
381 K, 4860 kPa | 0.05418
381 K, 4880 kPa | 0.05506
381 K, 4900 kPa | 0.05594
381 K, 4920 kPa | 0.05685
381 K, 4960 kPa | 0.05866
381 K, 5000 kPa | 0.06046
381 K, 5020 kPa | 0.06124
381 K, 5040 kPa | 0.06198
381 K, 5060 kPa | 0.06268
381 K, 5100 kPa | 0.06374
381 K, 5150 kPa | 0.06448
381 K, 5200 kPa | 0.06448
381 K, 5250 kPa | 0.06475
381 K, 5300 kPa | 0.06444
381 K, 5350 kPa | 0.06439
381 K, 5390 kPa | 0.06427
381 K, 5450 kPa | 0.06435
381 K, 5550 kPa | 0.06436
381 K, 5700 kPa | 0.06435
381 K, 5900 kPa | 0.06423
381 K, 6200 kPa | 0.06503
381 K, 6500 kPa | 0.06554
381 K, 6900 kPa | 0.0664
381 K, 7162 kPa | 0.06699
381 K, 7300 kPa | 0.06714
381 K, 7583 kPa | 0.06767
381 K, 9036 kPa | 0.07035
381 K, 10110 kPa | 0.07235
381 K, 11000 kPa | 0.07371
381 K, 12000 kPa | 0.07531
381 K, 14750 kPa | 0.07855

Reference: the NIST ThermoML archive (doi:10.1021/je500395f)
